Measurements from US9815839B2, “N-(1-(substituted-phenyl)ethyl)-9H-purin-6-amines as PI3K inhibitors” (Incyte Corporation, priority 2010, dated 2017).
pIC50: −log10 of the molar value.

Columns and labels:
[1] = test system: Pfeiffer cell line (diffuse large B cell lymphoma); experiment: Pfeiffer cell proliferation assay; type: cell-based; conditions: Homo sapiens, Pfeiffer, Pfeiffer cells, 3-4 days plus 12 hours [3H]-thymidine incorporation
Procedure, shortened: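 Pfeiffer DLBCL cells grown in RPMI/10% FBS at 2×10^3 cells/well in ultra-low-binding plates with a range of compound concentrations for 3-4 days. [3H]-thymidine (1 μCi/well) was then added for 12 h more. Incorporation was read by filtration and scintillation counting.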

PI3Kδ (p110δ/p85α) = target: T1, PI3Kδ (p110δ/p85α) (Homo sapiens, UniProt O00329); experiment: PI3Kδ scintillation proximity assay; type: biochemical; conditions: 20 μM ATP, 4 nM PI3Kδ
T1 construct: purchased Millipore (Bedford, Mass.)
T1 sequence (O00329 whole entry, species assumed): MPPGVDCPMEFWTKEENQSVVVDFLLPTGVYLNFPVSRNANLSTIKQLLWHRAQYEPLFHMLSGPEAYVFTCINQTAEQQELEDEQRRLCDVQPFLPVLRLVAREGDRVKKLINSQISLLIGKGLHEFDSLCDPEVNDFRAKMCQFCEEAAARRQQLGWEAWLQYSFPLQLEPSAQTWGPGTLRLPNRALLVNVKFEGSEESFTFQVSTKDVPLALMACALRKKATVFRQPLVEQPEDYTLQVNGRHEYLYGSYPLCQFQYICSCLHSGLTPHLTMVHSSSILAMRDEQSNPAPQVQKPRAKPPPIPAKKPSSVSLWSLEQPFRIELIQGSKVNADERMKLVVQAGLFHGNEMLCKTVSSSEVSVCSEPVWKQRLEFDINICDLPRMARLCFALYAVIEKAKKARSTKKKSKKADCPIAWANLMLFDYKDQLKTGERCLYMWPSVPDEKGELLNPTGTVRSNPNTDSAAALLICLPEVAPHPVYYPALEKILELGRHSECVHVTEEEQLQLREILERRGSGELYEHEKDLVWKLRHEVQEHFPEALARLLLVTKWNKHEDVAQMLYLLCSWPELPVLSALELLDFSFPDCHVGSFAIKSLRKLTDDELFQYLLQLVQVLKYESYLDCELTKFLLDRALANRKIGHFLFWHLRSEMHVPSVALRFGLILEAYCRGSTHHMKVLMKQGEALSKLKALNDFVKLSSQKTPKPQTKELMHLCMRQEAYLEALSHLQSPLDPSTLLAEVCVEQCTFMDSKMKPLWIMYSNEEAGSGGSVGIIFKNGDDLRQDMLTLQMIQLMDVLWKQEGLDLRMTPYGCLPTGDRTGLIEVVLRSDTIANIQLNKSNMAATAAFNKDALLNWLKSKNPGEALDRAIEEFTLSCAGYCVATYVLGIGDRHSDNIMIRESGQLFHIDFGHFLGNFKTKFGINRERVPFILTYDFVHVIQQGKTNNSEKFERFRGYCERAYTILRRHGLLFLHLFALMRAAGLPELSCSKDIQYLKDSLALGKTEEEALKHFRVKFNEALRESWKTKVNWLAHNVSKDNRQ
T1 sequence (P27986 whole entry partner, species assumed): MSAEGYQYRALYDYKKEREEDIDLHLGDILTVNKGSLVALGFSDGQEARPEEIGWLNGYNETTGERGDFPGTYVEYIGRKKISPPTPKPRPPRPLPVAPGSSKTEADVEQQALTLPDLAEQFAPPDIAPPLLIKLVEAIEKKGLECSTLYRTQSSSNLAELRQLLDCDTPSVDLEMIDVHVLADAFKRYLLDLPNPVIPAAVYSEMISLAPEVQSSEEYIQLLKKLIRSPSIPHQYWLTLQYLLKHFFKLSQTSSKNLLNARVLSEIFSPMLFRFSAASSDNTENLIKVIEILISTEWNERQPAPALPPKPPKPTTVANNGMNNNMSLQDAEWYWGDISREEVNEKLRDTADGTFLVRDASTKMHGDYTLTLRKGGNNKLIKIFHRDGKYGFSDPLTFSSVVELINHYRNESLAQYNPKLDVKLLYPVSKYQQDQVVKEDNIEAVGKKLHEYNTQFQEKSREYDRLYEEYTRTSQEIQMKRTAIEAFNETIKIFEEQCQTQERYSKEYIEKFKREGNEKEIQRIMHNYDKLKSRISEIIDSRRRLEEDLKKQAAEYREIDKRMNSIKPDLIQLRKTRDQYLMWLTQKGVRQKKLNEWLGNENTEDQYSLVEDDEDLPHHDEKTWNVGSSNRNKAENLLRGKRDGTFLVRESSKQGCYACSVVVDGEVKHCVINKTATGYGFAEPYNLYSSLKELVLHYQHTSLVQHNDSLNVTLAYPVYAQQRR
Procedure, shortened: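 Radiometric SPA: product captured on WGA beads after EDTA quench and counted, IC50 fitted against log inhibitor concentration. Reactions ran 210 min at room temperature with 4 nM PI3Kδ (p110δ/p85α), 20 μM each PIP2 and ATP plus 33P-ATP, pH 6.7 MOPS buffer, 0.5% DMSO final.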

SMILES	pIC50 [1]	pIC50 (PI3Kδ (p110δ/p85α))
COc1c(C(C)Nc2ncnc3[nH]cnc23)cc(Cl)c(C)c1-c1cncc(Cl)c1 (stereo not shown) [Example 36, N-{1-[5-chloro-3-(5-chloropyridin-3-yl)-2-methoxy-4-methylphenyl]ethyl}-9H-purin-6-amine]	> 7.00	> 7.30
CC(Nc1ncnc2[nH]cnc12)c1cc(Cl)cc(-c2cn[nH]c2)c1-c1cc(F)cc(F)c1 (stereo not shown) [Example 124, N-{1-[4-Chloro-3′,5′-difluoro-6-(1H-pyrazol-4-yl)biphenyl-2-yl]ethyl}-9H-purin-6-amine]	> 7.00	> 7.30
Cc1c(Cl)cc(C(C)Nc2ncnc3[nH]cnc23)c(-c2cccc(F)c2)c1-n1cnnc1 (stereo not shown) [Example 11, N-{1-[4-chloro-3′-fluoro-5-methyl-6-(4H-1,2,4-triazol-4-yl)biphenyl-2-yl]ethyl}-9H-purin-6-amine]	> 7.00	> 7.30
COc1c(C(C)Nc2ncnc3[nH]cnc23)cc(Cl)c(C)c1N1CCC(O)CC1 (stereo not shown) [Example 60, 1-{3-Chloro-6-methoxy-2-methyl-5-[1-(9H-purin-6-ylamino)ethyl]phenyl}piperidin-4-ol]	< 6.00	> 7.30
COCCN1CC(c2c(Cl)c(Cl)cc(C(C)Nc3ncnc4[nH]cnc34)c2OC)C1 (stereo not shown) [Example 200, N-(1-{4,5-Dichloro-2-methoxy-3-[1-(2-methoxyethyl)azetidin-3-yl]phenyl}ethyl)-9H-purin-6-amine]	> 7.00	> 7.30
COc1c(C(C)Nc2ncnc3[nH]cnc23)cc(Cl)c(C)c1N1CCCC1=O (stereo not shown) [Example 18, 1-{3-Chloro-6-methoxy-2-methyl-5-[1-(9H-purin-6-ylamino)ethyl]phenyl}pyrrolidin-2-one]	6.30 to 7.00	6.30 to 6.60
Cc1c(Cl)cc(C(C)Nc2ncnc3[nH]cnc23)c(-c2cccc(F)c2)c1-c1nnn[nH]1 (stereo not shown) [Example 8, N-{1-[4-chloro-3′-fluoro-5-methyl-6-(1H-tetrazol-5-yl)biphenyl-2-yl]ethyl}-9H-purin-6-amine]	< 6.00	> 7.30
COc1cc(-c2c(C)c(Cl)cc(C(C)Nc3ncnc4[nH]cnc34)c2OC)ccc1F (stereo not shown) [Example 95, N-[1-(5-chloro-4′-fluoro-2,3′-dimethoxy-6-methylbiphenyl-3-yl)ethyl]-9H-purin-6-amine]	6.00 to 6.30	> 7.30
CNC(=O)c1ccc(-c2c(C)c(Cl)cc(C(C)Nc3ncnc4[nH]cnc34)c2OC)cc1Cl (stereo not shown) [Example 37, 3,3′-dichloro-6′-methoxy-N,2′-dimethyl-5′-[1-(9H-purin-6-ylamino)ethyl]biphenyl-4-carboxamide]	> 7.00	> 7.30
COc1ncc(-c2c(C)c(Cl)cc(C(C)Nc3ncnc4[nH]cnc34)c2OC)cc1F (stereo not shown) [Example 109, N-{1-[5-chloro-3-(5-fluoro-6-methoxypyridin-3-yl)-2-methoxy-4-methylphenyl]ethyl]-9H-purin-6-amine]	> 7.00	> 7.30
COc1c(C(C)Nc2ncnc3[nH]cnc23)cc(Cl)c(C)c1-c1cccc(C#N)c1 (stereo not shown) [Example 40, 3′-chloro-6′-methoxy-2′-methyl-5′-[1-(9H-purin-6-ylamino)ethyl]biphenyl-3-carbonitrile]	> 7.00	> 7.30
CCOc1c(C(C)Nc2ncnc3[nH]cnc23)cc(Cl)c(C#N)c1-c1ccc(C(=O)N(C)C)nc1 (stereo not shown) [Example 179, 5-{3-chloro-2-cyano-6-ethoxy-5-[1-(9H-purin-6-ylamino)ethyl]phenyl}-N,N-dimethylpyridine-2-carboxamide bis(2,2,2-trifluoroacetate)]	> 7.00	> 7.30
COc1ncc(-c2c(C)c(Cl)cc(C(C)Nc3ncnc4[nH]cnc34)c2OC)cn1 (stereo not shown) [Example 23, N-{1-[5-chloro-2-methoxy-3-(2-methoxypyrimidin-5-yl)-4-methylphenyl]ethyl}-9H-purin-6-amine]	> 7.00	> 7.30
COc1c(C(C)Nc2ncnc3[nH]cnc23)cc(Cl)c(C)c1-c1ccc(-n2cccn2)cc1 (stereo not shown) [Example 43, N-{1-[5-chloro-2-methoxy-6-methyl-4′-(1H-pyrazol-1-yl)biphenyl-3-yl]ethyl}-9H-purin-6-amine]	6.30 to 7.00	> 7.30
COc1cncc(-c2c(C)c(Cl)cc(C(C)Nc3ncnc4[nH]cnc34)c2OC)c1 (stereo not shown) [Example 34, N-{1-[5-chloro-2-methoxy-3-(5-methoxypyridin-3-yl)-4-methylphenyl]ethyl}-9H-purin-6-amine]	> 7.00	> 7.30
Cc1c(Cl)cc(C(C)Nc2ncnc3[nH]cnc23)c(-c2cccc(F)c2)c1N1CCCC1=O (stereo not shown) [Example 5, 1-{4-Chloro-3′-fluoro-3-methyl-6-[1-(9H-purin-6-ylamino)ethyl]biphenyl-2-yl}pyrrolidin-2-one]	> 7.00	> 7.30

SMILES	pIC50 [1]	pIC50 (PI3Kδ (p110δ/p85α))
COc1c(C(C)Nc2ncnc3[nH]cnc23)cc(Cl)c(C)c1-c1cncc(C(=O)N2CCOCC2)c1 (stereo not shown) [Example 111, N-(1-{5-chloro-2-methoxy-4-methyl-3-[5-(morpholin-4-ylcarbonyl)pyridin-3-yl]phenyl}ethyl)-9H-purin-6-amine]	> 7.00	> 7.30
COc1c(C(C)Nc2ncnc3[nH]cnc23)cc(Cl)c(C)c1-c1cc(F)cc(F)c1 (stereo not shown) [Example 29, N-[1-(5-chloro-3′,5′-difluoro-2-methoxy-6-methylbiphenyl-3-yl)ethyl]-9H-purin-6-amine]	6.30 to 7.00	> 7.30
COc1ncc(-c2c(C)c(Cl)cc(C(C)Nc3ncnc4[nH]cnc34)c2-c2ccccc2)cn1 (stereo not shown) [Example 25, N-{1-[4-chloro-6-(2-methoxypyrimidin-5-yl)-5-methylbiphenyl-2-yl]ethyl}-9H-purin-6-amine]	> 7.00	> 7.30
Cc1c(Cl)cc(C(C)Nc2ncnc3[nH]cnc23)c(-c2cc(F)cc(F)c2)c1-c1ccc(C#N)cc1 (stereo not shown) [Example 79, 5′-chloro-3″,5″-difluoro-6′-methyl-3′-[1-(9H-purin-6-ylamino)ethyl]-1,1′:2′,1″-terphenyl-4-carbonitrile]	6.30 to 7.00	6.60 to 7.00
COc1c(C(C)Nc2ncnc3[nH]cnc23)cc(Cl)c(C)c1-c1cccc(Cl)c1 (stereo not shown) [Example 35, N-[1-(3′,5-dichloro-2-methoxy-6-methylbiphenyl-3-yl)ethyl]-9H-purin-6-amine]	< 6.00	7.00 to 7.30
COc1c(C(C)Nc2ncnc3[nH]cnc23)cc(Cl)c(Cl)c1C1CN(C2CCOC2)C1 (stereo not shown) [Example 197, N-(1-{4,5-Dichloro-2-methoxy-3-[1-(tetrahydrofuran-3-yl)azetidin-3-yl]phenyl}ethyl)-9H-purin-6-amine bistrifluoroacetate]	> 7.00	> 7.30
COc1c(C(C)Nc2ncnc3[nH]cnc23)cc(Cl)c(C)c1-c1cccc(N(C)C)c1 (stereo not shown) [Example 100, N-{1-[5-chloro-3′-(dimethylamino)-2-methoxy-6-methylbiphenyl-3-yl]ethyl}-9H-purin-6-amine]	< 6.00	> 7.30
Cc1c(Cl)cc(C(C)Nc2ncnc3[nH]cnc23)c(-c2cccc(F)c2)c1N1CCOC1=O (stereo not shown) [Example 7, 3-{4-Chloro-3′-fluoro-3-methyl-6-[1-(9H-purin-6-ylamino)ethyl]biphenyl-2-yl}-1,3-oxazolidin-2-one]	> 7.00	> 7.30
COc1c(C(C)Nc2ncnc3[nH]cnc23)cc(Cl)c(C)c1-c1ccc(Cl)c(F)c1 (stereo not shown) [Example 92, N-{1-(4′,5-dichloro-3'-fluoro-2-methoxy-6-methylbiphenyl-3-yl)ethyl]-9H-purin-6-amine]	6.30 to 7.00	6.60 to 7.00
COc1c(C(C)Nc2ncnc3[nH]cnc23)cc(Cl)c(C)c1-c1ccc(N2CCOCC2)cc1 (stereo not shown) [Example 88, N-[1-(5-chloro-2-methoxy-6-methyl-4′-morpholin-4-ylbiphenyl-3-yl)ethyl]-9H-purin-6-amine]	> 7.00	> 7.30
CC(=O)Nc1c(C)c(Cl)cc(C(C)Nc2ncnc3[nH]cnc23)c1-c1cccc(F)c1 (stereo not shown) [Example 9, N-{4-chloro-3′-fluoro-3-methyl-6-[1-(9H-purin-6-ylamino)ethyl]biphenyl-2-yl}acetamide]	6.30 to 7.00	7.00 to 7.30
COc1c(C(C)Nc2ncnc3[nH]cnc23)cc(Cl)c(C)c1-c1cnc(N(C)C)nc1 (stereo not shown) [Example 20, N-(1-{5-chloro-3-[2-(dimethylamino)pyrimidin-5-yl]-2-methoxy-4-methylphenyl}ethyl)-9H-purin-6-amine]	6.30 to 7.00	> 7.30
Cc1n[nH]c(C)c1-c1c(C)c(Cl)cc(C(C)Nc2ncnc3[nH]cnc23)c1-c1cc(F)cc(F)c1 (stereo not shown) [Example 107, N-{1-[4-chloro-6-(3,5-dimethyl-1H-pyrazol-4-yl)-3′,5′-difluoro-5-methylbiphenyl-2-yl]ethyl}-9H-purin-6-amine]	6.30 to 7.00	> 7.30
Cc1c(Cl)cc(C(C)Nc2ncnc3[nH]cnc23)c(-c2cccc(F)c2)c1[N+](=O)[O-] (stereo not shown) [Example 3, N-[1-(4-chloro-3′-fluoro-5-methyl-6-nitrobiphenyl-2-yl)ethyl]-9H-purin-6-amine]	< 6.00	6.60 to 7.00
COc1c(C(C)Nc2ncnc3[nH]cnc23)cc(Cl)c(C)c1-c1ccc(F)nc1 (stereo not shown) [Example 51, N-{1-[5-chloro-3-(6-fluoropyridin-3-yl)-2-methoxy-4-methylphenyl]ethyl}-9H-purin-6-amine]	> 7.00	> 7.30
COc1c(C(C)Nc2ncnc3[nH]cnc23)cc(Cl)c(C)c1-c1cc(C(=O)N(C)C)cnn1 (stereo not shown) [Example 178, 6-{3-chloro-6-methoxy-2-methyl-5-[1-(9H-purin-6-ylamino)ethyl]phenyl}-N,N-dimethylpyridazine-4-carboxamide bis(2,2,2-trifluoroacetate)]	> 7.00	> 7.30
